Laboratory results reported in patent US5045533A, “Retinoic esters of antibiotics and pharmaceutical and cosmetic compositions containing them” (L'Oreal, priority 1986, dated 1991).
In brackets after ≈: the same amount, converted by molar mass. Like-named read-outs stand apart in the source and are kept apart here.

What was measured:
P37 E⊕ (sensitive) = assay: MIC by dilution method, P37 E⊕ (sensitive) strain; assay type: cell-based, propionibacterium acnes; conditions: for MIC: Cutibacterium acnes; for activity on sensitive strains relative to the esters of the invention: P37 E⊕
Description: (§1) The activity of retinoic esters of antibiotics namely of erythromycin A, lincomycin and clindamycin has been studied by the dilution method, so as to determine, the minimal inhibitory concentration (MIC), this method being described and employed by G. A. Denys et al, "Antimicrobial Agents and Chemotherapy" 1983) 23, 335-337 and J. J. Leyden et al, J. Am. Acad. Dermatol. (1983), 8, (1) 41-5, by using as the strain of propionibacterium acnes, the P37 strain furnished by Cunliffe and Holland.
(§2) (2) at 1 cm beyond the periphery of the zone of inhibition strains called P37 E⊕ are retained.
(§3) After isolation and culture, the P37 E⊕ and P37 E⊖ strains effectively show very different sensitivities to erythromycin as is illustrated by the following respective MIC values:
(§4) The Minimal Inhibitory Concentration (MIC) expressed in μg/ml of the tested retinoic esters of erythromycin A, lincomycin and clindamycin vis-a-vis the P37⊕ and P37⊖ strains is reported in the following tables

P37 E⊖ (resistant) = assay: MIC by dilution method, P37 E⊖ (resistant) strain; assay type: cell-based, propionibacterium acnes; conditions: for MIC: Cutibacterium acnes; for activity on resistant strains relative to the esters of the invention: P37 E⊖
Description: as §1
(§5) (1) at the interior of the zone of inhibition strains called P37 E⊖ are retained because of their apparent resistance to erythromycin;
as §3, §4

P37 strain = assay: zone of inhibition of growth around disk in Petri dish; assay type: cell-based, propionibacterium acnes; conditions: Cutibacterium acnes, 144 h; 50 μg erythromycin in DMSO on 9 mm disk; 6 days at 36° C., anaerobic; after 8 sub-cultures; read-out: zone of inhibition of the growth of the strain, total diameter
Method: On the other hand, after 8 successive sub-cultures in the same medium (RCM, Reinforced Clostridium Medium (oxoid) 19/20, DMSO […] by volume) so as to obtain a progressive stabilization of the strain to this medium, a progressive resistance to erythromycin is manifested in the following form.
After exposure of a standardized inoculum (DO=1.8 to […]) on gelose medium (RCM+ furazolidone) in a Petri dish, a 9 mm diameter disk is deposited at its center. On this disk, 50 μg of erythromycin (in solution in DMSO) are deposited.

P37 = assay: IC 50 (Inhibitory Concentration at 50%), P37; assay type: cell-based, propionibacterium acnes; conditions: Cutibacterium acnes, constant culture time, 50% of survivors
Description: (§6) This phenomeon is confirmed by the study of the IC 50 (Inhibitory Concentration at 50%) which represents the concentration of erythromycin where, at a constant culture time, 50% of survivors among the population are found.

P37 E⊕ = assay: IC 50 (Inhibitory Concentration at 50%), P37 E⊕; assay type: cell-based, propionibacterium acnes; conditions: Cutibacterium acnes, constant culture time, 50% of survivors
Description: as §2, §6

P37 E⊖ = assay: IC 50 (Inhibitory Concentration at 50%), P37 E⊖; assay type: cell-based, propionibacterium acnes; conditions: Cutibacterium acnes
Description: as §5, §6

Staph. Epi. 3 = assay: MIC, Staph. Epi. 3 strain; assay type: cell-based; conditions: Staphylococcus epidermidis; strain isolated from an acne patient; read-out: minimal inhibitory concentrations, Staph. Epi. 3
Description: as §1
(§7) The "Staph. Epi. 3" strain is isolated from an acne patient whereas the "Staph. Epi. 6" strain is isolated from a non-acne patient. The isolation of these strains is carried out in accordance with the Williamson-Kligman method, ("A new method for the quantitative investigation of cutaneous bacteria", P. Williamson and A. Kligman, J. I. D., Vol. 45, No. 6, 1965). Decimal dilutions of the retained portions are effected and 0.1 ml of these dilutions is inoculated on a selective medium permitting isolation of staphylococcus.

Staph. Epi. 6 = assay: MIC, Staph. Epi. 6 strain; assay type: cell-based; conditions: Staphylococcus epidermidis; strain isolated from a non-acne patient; read-out: minimal inhibitory concentrations, Staph. Epi. 6
Description: as §1, §7

[1] = sensitive strain, retinoic ester table, read-out: Minimal Inhibitory Concentration (MIC), P37 E⊕ (sensitive)
[2] = read-out: Minimal Inhibitory Concentration (MIC), P37 E⊖ (resistant)

SMILES	MIC (P37 E⊕ (sensitive); [1]) [µg/mL]	MIC (P37 E⊖ (resistant); [2]) [µg/mL]	MIC (Staph. Epi. 3) [µg/mL]	MIC (Staph. Epi. 6) [µg/mL]	further results
CC[C@H]1OC(=O)[C@H](C)[C@@H](O[C@H]2C[C@@](C)(OC)[C@@H](O)[C@H](C)O2)[C@H](C)[C@@H](O[C@@H]2O[C@H](C)C[C@H](N(C)C)[C@H]2O)[C@](C)(O)C[C@@H](C)C(=O)[C@H](C)[C@@H](O)[C@]1(C)O [Erythromycin A]	1 (≈ 1.36 µM)	> 50	13 (≈ 17.7 µM)	30 (≈ 40.9 µM)	MIC (P37 E⊕ (sensitive); P37 E⊕ strain, strain characterisation table, read-out: MIC): 0.78 µg/mL (≈ 1.06 µM); MIC (P37 E⊖ (resistant)): 50 µg/mL (≈ 68.1 µM); zone of inhibition at 50 µg/disc (P37 strain): 42 mm; IC50 (P37): 50 µg/mL (≈ 68.1 µM); IC50 (P37 E⊕): 5 µg/mL (≈ 6.81 µM); IC50 (P37 E⊖): 100 µg/mL (≈ 136 µM)
CCC[C@@H]1C[C@@H](C(=O)N[C@@H]([C@H]2O[C@H](SC)[C@H](O)[C@@H](OC(=O)/C=C(C)/C=C/C=C(C)/C=C/C3=C(C)CCCC3(C)C)[C@H]2O)[C@H](C)Cl)N(C)C1 [O-retinoyl (all-trans)-3-clindamycin, O-retinoyl (all trans)-3-clindamycin]	18 (≈ 25.4 µM)	50 (≈ 70.7 µM)			
CC[C@H]1OC(=O)[C@H](C)[C@@H](O[C@H]2C[C@@](C)(OC)[C@@H](O)[C@H](C)O2)[C@H](C)[C@@H](O[C@@H]2O[C@H](C)C[C@H](N(C)C)[C@H]2OC(=O)/C=C(C)/C=C/C=C(C)/C=C/C2=C(C)CCCC2(C)C)[C@](C)(O)C[C@@H](C)C(=O)[C@H](C)[C@@H](O)[C@]1(C)O [O-retinoyl (all trans)-2'-erythromycin A]	14 (≈ 13.8 µM)	13 (≈ 12.8 µM)	75 (≈ 73.8 µM)	80 (≈ 78.7 µM)	
CCC[C@@H]1C[C@@H](C(=O)N[C@@H]([C@H]2O[C@H](SC)[C@H](O)[C@@H](OC(=O)\C=C(C)/C=C/C=C(C)/C=C/C3=C(C)CCCC3(C)C)[C@H]2O)[C@H](C)Cl)N(C)C1 [O-retinoyl (13-cis)-3-clindamycin]	1.5 (≈ 2.12 µM)	35 (≈ 49.5 µM)	113 (≈ 160 µM)	113 (≈ 160 µM)	
CCCCCCCC/C=C\CCCCCCCC(=O)O[C@H]1[C@@H](O)[C@@H]([C@H](NC(=O)[C@@H]2C[C@@H](CCC)CN2C)[C@@H](C)O)O[C@H](SC)[C@@H]1O [O-oleoyl-3-lincomycin]	19 (≈ 28.3 µM)	42 (≈ 62.6 µM)			
CCC[C@@H]1C[C@@H](C(=O)N[C@@H]([C@H]2O[C@H](SC)[C@H](O)[C@@H](O)[C@H]2O)[C@@H](C)O)N(C)C1 [Lincomycin]	13 (≈ 32 µM)	66 (≈ 162 µM)	14 (≈ 34.4 µM)	20 (≈ 49.2 µM)	
CCC[C@@H]1C[C@@H](C(=O)N[C@@H]([C@H]2O[C@H](SC)[C@H](O)[C@@H](OC(=O)\C=C(C)/C=C/C=C(C)/C=C/C3=C(C)CCCC3(C)C)[C@H]2O)[C@@H](C)O)N(C)C1 [O-retinoyl (13-cis)-3-lincomycin]	17.5 (≈ 25.4 µM)	25 (≈ 36.3 µM)	100 (≈ 145 µM)	100 (≈ 145 µM)	
CCCCCCCC/C=C\CCCCCCCC(=O)O[C@H]1[C@@H](O)[C@@H]([C@H](NC(=O)[C@@H]2C[C@@H](CCC)CN2C)[C@H](C)Cl)O[C@H](SC)[C@@H]1O [O-oleoyl-3-clindomycin]	54 (≈ 78.3 µM)	> 138			activity on sensitive strains relative to the esters of the invention (P37 E⊕ (sensitive)): clearly less active; activity on resistant strains relative to the esters of the invention (P37 E⊖ (resistant)): clearly less active
CCC[C@@H]1C[C@@H](C(=O)N[C@@H]([C@H]2O[C@H](SC)[C@H](O)[C@@H](O)[C@H]2O)[C@H](C)Cl)N(C)C1 [Clindamycin]	1 (≈ 2.35 µM)	10 (≈ 23.5 µM)	7 (≈ 16.5 µM)	8 (≈ 18.8 µM)	
CC[C@H]1OC(=O)[C@H](C)[C@@H](O[C@H]2C[C@@](C)(OC)[C@@H](O)[C@H](C)O2)[C@H](C)[C@@H](O[C@@H]2O[C@H](C)C[C@H](N(C)C)[C@H]2OC(=O)\C=C(C)/C=C/C=C(C)/C=C/C2=C(C)CCCC2(C)C)[C@](C)(O)C[C@@H](C)C(=O)[C@H](C)[C@@H](O)[C@]1(C)O [O-retinoyl (13-cis)-2'-erythromycin A]	20 (≈ 19.7 µM)	34 (≈ 33.5 µM)	110 (≈ 108 µM)	110 (≈ 108 µM)	
CCCCCCCC/C=C\CCCCCCCC(=O)O[C@H]1[C@H](O[C@@H]2[C@@H](C)[C@H](O[C@H]3C[C@@](C)(OC)[C@@H](O)[C@H](C)O3)[C@@H](C)C(=O)O[C@H](CC)[C@@](C)(O)[C@H](O)[C@@H](C)C(=O)[C@H](C)C[C@@]2(C)O)O[C@H](C)C[C@@H]1N(C)C [O-oleoyl-2'-erythromycin A (Z-9)]	50 (≈ 50.1 µM)	100 (≈ 100 µM)			activity on sensitive strains relative to the esters of the invention (P37 E⊕ (sensitive)): clearly less active; activity on resistant strains relative to the esters of the invention (P37 E⊖ (resistant)): clearly less active
